Test results from PubChem BioAssay (NCI).
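96-well plates; 48 h exposure; 5 concentrations. Endpoints by linear interpolation between flanking doses. Not reached: highest tested concentration assigned. GI50 = concentration required for 50% inhibition of growth. TGI: concentration producing complete growth inhibition.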

Assays:
Experiment in all cases: inhibition of tumour cell growth, NCI panel, 48 h
[1] = system: 786-0 renal
[2] = system: A498 renal
[3] = system: A549 NSCLC
[4] = system: ACHN renal
[5] = system: BT-549 breast
[6] = system: CCRF-CEM leukemia
[7] = system: COLO 205 colon
[8] = system: DU-145 prostate
[9] = system: EKVX NSCLC
[10] = system: HCC-2998 colon
[11] = system: HCT-116 colon
[12] = system: HCT-15 colon
[13] = system: HL-60(TB) leukemia
[14] = system: HOP-62 NSCLC
[15] = system: HOP-92 NSCLC
[16] = system: HS 578T breast
[17] = system: HT29 colon
[18] = system: IGROV1 ovarian
[19] = system: K-562 leukemia
[20] = system: KM12 colon
[21] = system: LOX IMVI melanoma
[22] = system: M14 melanoma
[23] = system: MALME-3M melanoma
[24] = system: MCF7 breast
[25] = system: MDA-MB-231 breast
[26] = system: MDA-MB-435
[27] = system: MOLT-4 leukemia
[28] = system: NCI-H226 lung
[29] = system: NCI-H23 lung
[30] = system: NCI-H460 lung
[31] = system: NCI-H522 lung
[32] = system: NCI/ADR-RES ovarian
[33] = system: OVCAR-3 ovarian
[34] = system: OVCAR-4 ovarian
[35] = system: OVCAR-5 ovarian
[36] = system: OVCAR-8 ovarian
[37] = system: PC-3 prostate
[38] = system: RPMI-8226 leukemia
[39] = system: SF-268 CNS
[40] = system: SF-295 CNS
[41] = system: SF-539 CNS
[42] = system: SK-MEL-2 melanoma
[43] = system: SK-MEL-28 melanoma
[44] = system: SK-MEL-5 melanoma
[45] = system: SK-OV-3 ovarian
[46] = system: SN12C renal
[47] = system: SNB-19 CNS
[48] = system: SNB-75 CNS
[49] = system: SR leukemia
[50] = system: SW-620 colon
[51] = system: T-47D breast
[52] = system: TK-10 renal
[53] = system: U251 CNS
[54] = system: UACC-257 melanoma
[55] = system: UACC-62 melanoma
[56] = system: UO-31 renal
[57] = system: CAKI-1 renal
[58] = system: RXF 393 renal

`COc1ccc(/C=C(/C(=O)N2CCN(c3ccccc3)CC2)c2cc(OC)c(OC)c(OC)c2)cc1O` was tested, and the GI50 [1] was 4.1 µM, the TGI [1] was greater than 100 µM and the GI50 [2] was 0.211 µM. For the same compound, the TGI [2] was 1.92 µM, the GI50 [3] was 0.764 µM and the TGI [3] was greater than 100 µM. It also gave a GI50 [4] of 0.457 µM, a TGI [4] greater than 100 µM and a GI50 [5] of 0.391 µM. The TGI [5] was 98.5 µM, the GI50 [6] was 0.355 µM and the TGI [6] was greater than 100 µM. The GI50 [7] was 3.89 µM, the TGI [7] was 22.1 µM and the GI50 [8] was 0.451 µM. It also gave a TGI [8] greater than 100 µM, a GI50 [9] of 0.631 µM and a TGI [9] greater than 100 µM. It also gave a GI50 [10] of 0.499 µM, a TGI [10] greater than 100 µM and a GI50 [11] of 0.37 µM. The TGI [11] was greater than 100 µM, the GI50 [12] was 0.341 µM and the TGI [12] was greater than 100 µM. For the same compound, the GI50 [13] was 0.239 µM, the TGI [13] was 0.575 µM and the GI50 [14] was 0.55 µM. It also gave a TGI [14] greater than 100 µM, a GI50 [15] of 22 µM and a TGI [15] greater than 100 µM. The GI50 [16] was 0.712 µM, the TGI [16] was greater than 100 µM and the GI50 [17] was 5 µM. It also gave a TGI [17] of 38.5 µM, a GI50 [18] of 0.519 µM and a TGI [18] greater than 100 µM. The GI50 [19] was 0.296 µM, the TGI [19] was greater than 100 µM and the GI50 [20] was 0.414 µM. The TGI [20] was greater than 100 µM, the GI50 [21] was 0.398 µM and the TGI [21] was greater than 100 µM. The GI50 [22] was 0.315 µM, the TGI [22] was 24 µM and the GI50 [23] was 24.7 µM. The TGI [23] was greater than 100 µM, the GI50 [24] was 0.307 µM and the TGI [24] was greater than 100 µM. It also gave a GI50 [25] of 0.378 µM, a TGI [25] of 50.9 µM and a GI50 [26] of 0.15 µM. It also gave a TGI [26] of 0.514 µM, a GI50 [27] of 0.368 µM and a TGI [27] greater than 100 µM. For the same compound, the GI50 [28] was 60.9 µM, the TGI [28] was greater than 100 µM and the GI50 [29] was 0.938 µM. The TGI [29] was greater than 100 µM, the GI50 [30] was 0.374 µM and the TGI [30] was greater than 100 µM. It also gave a GI50 [31] of 0.128 µM, a TGI [31] of 0.594 µM and a GI50 [32] of 0.676 µM. The TGI [32] was greater than 100 µM, the GI50 [33] was 0.322 µM and the TGI [33] was 6.76 µM. It also gave a GI50 [34] of 2.7 µM, a TGI [34] greater than 100 µM and a GI50 [35] of 0.678 µM. The TGI [35] was greater than 100 µM, the GI50 [36] was 0.419 µM and the TGI [36] was greater than 100 µM. It also gave a GI50 [37] of 0.58 µM, a TGI [37] greater than 100 µM and a GI50 [38] of 0.374 µM. It also gave a TGI [38] of 21.4 µM, a GI50 [39] of 0.543 µM and a TGI [39] greater than 100 µM. For the same compound, the GI50 [40] was 0.808 µM, the TGI [40] was greater than 100 µM and the GI50 [41] was 0.205 µM. For the same compound, the TGI [41] was 0.708 µM, the GI50 [42] was 0.387 µM and the TGI [42] was 86.5 µM. The GI50 [43] was 0.671 µM, the TGI [43] was greater than 100 µM and the GI50 [44] was 0.361 µM. It also gave a TGI [44] of 11.8 µM, a GI50 [45] of 0.586 µM and a TGI [45] greater than 100 µM. For the same compound, the GI50 [46] was 0.564 µM, the TGI [46] was greater than 100 µM and the GI50 [47] was 0.481 µM. The TGI [47] was greater than 100 µM, the GI50 [48] was 0.293 µM and the TGI [48] was greater than 100 µM. The GI50 [49] was 0.381 µM, the TGI [49] was 58.4 µM and the GI50 [50] was 0.468 µM. It also gave a TGI [50] greater than 100 µM, a GI50 [51] of 51.3 µM and a TGI [51] greater than 100 µM. For the same compound, the GI50 [52] was 23.4 µM, the TGI [52] was greater than 100 µM and the GI50 [53] was 0.445 µM. It also gave a TGI [53] greater than 100 µM, a GI50 [54] of 30.6 µM and a TGI [54] greater than 100 µM. It also gave a GI50 [55] of 0.332 µM, a TGI [55] greater than 100 µM and a TGI [56] of 90.8 µM.

`CCCCCCNC(=O)c1cc(NCc2cc(O)ccc2O)ccc1O` showed a GI50 [1] of 5.22 µM, a TGI [1] of 20.7 µM and a GI50 [2] of 16.1 µM. It also gave a TGI [2] greater than 100 µM, a GI50 [3] of 23.5 µM and a TGI [3] of 71.5 µM. The GI50 [4] was 4.02 µM, the TGI [4] was 15.7 µM and the GI50 [5] was 1.14 µM. The TGI [5] was 4.27 µM, the GI50 [57] was 4.35 µM and the TGI [57] was 18.5 µM. The GI50 [6] was 0.409 µM, the TGI [6] was 46.5 µM and the GI50 [7] was 10.8 µM. For the same compound, the TGI [7] was 28.6 µM, the GI50 [8] was 15.2 µM and the TGI [8] was 28.8 µM. The GI50 [9] was 7.69 µM, the TGI [9] was 25.2 µM and the GI50 [10] was 16.1 µM. It also gave a TGI [10] of 31 µM, a GI50 [11] of 4.75 µM and a TGI [11] of 24.9 µM. The GI50 [12] was 2.16 µM, the TGI [12] was 7.35 µM and the GI50 [13] was 0.578 µM. The TGI [13] was 3.41 µM, the GI50 [14] was 30 µM and the TGI [14] was 91.5 µM. For the same compound, the GI50 [15] was 1.66 µM, the TGI [15] was 5.03 µM and the GI50 [16] was 15.1 µM. For the same compound, the TGI [16] was greater than 100 µM, the GI50 [17] was 21.6 µM and the TGI [17] was 44.3 µM. For the same compound, the GI50 [18] was 12.7 µM, the TGI [18] was 38.7 µM and the GI50 [19] was 2.71 µM. The TGI [19] was 12.8 µM, the GI50 [20] was 11.5 µM and the TGI [20] was 29 µM. The GI50 [21] was 6.84 µM, the TGI [21] was 22.4 µM and the GI50 [22] was 11.1 µM. For the same compound, the TGI [22] was 25.2 µM, the GI50 [23] was 2.74 µM and the TGI [23] was 8.29 µM. The GI50 [24] was 5.01 µM, the TGI [24] was 27.7 µM and the GI50 [25] was 2.78 µM. For the same compound, the TGI [25] was 10.4 µM, the GI50 [26] was 9.48 µM and the TGI [26] was 22.1 µM. The GI50 [27] was 1.2 µM, the TGI [27] was 13.4 µM and the GI50 [29] was 13.1 µM. The TGI [29] was 33.1 µM, the GI50 [30] was 21.5 µM and the TGI [30] was 82.3 µM. It also gave a GI50 [31] of 0.265 µM, a TGI [31] of 0.752 µM and a GI50 [32] of 5.44 µM. The TGI [32] was 78.1 µM, the GI50 [33] was 2.76 µM and the TGI [33] was 13 µM. For the same compound, the GI50 [34] was 5.62 µM, the TGI [34] was 19.3 µM and the GI50 [35] was 6.63 µM. It also gave a TGI [35] of 20.8 µM, a GI50 [36] of 4.83 µM and a TGI [36] of 36.2 µM. The GI50 [37] was 2.47 µM, the TGI [37] was 12 µM and the GI50 [38] was 0.371 µM. For the same compound, the TGI [38] was 6.47 µM, the GI50 [58] was 2.42 µM and the TGI [58] was 8.03 µM. The GI50 [39] was 3.79 µM, the TGI [39] was 18.1 µM and the GI50 [40] was 19.4 µM. It also gave a TGI [40] of 49.2 µM, a GI50 [41] of 1.91 µM and a TGI [41] of 6.06 µM. For the same compound, the GI50 [42] was 11.9 µM, the TGI [42] was 34.5 µM and the GI50 [43] was 12.3 µM. The TGI [43] was 25.4 µM, the GI50 [44] was 11.8 µM and the TGI [44] was 25.4 µM. It also gave a GI50 [45] of 25.8 µM, a TGI [45] greater than 100 µM and a GI50 [46] of 4.75 µM. The TGI [46] was 17.4 µM, the GI50 [47] was 14.9 µM and the TGI [47] was 28.6 µM. The GI50 [48] was 4.63 µM, the TGI [48] was 21.1 µM and the GI50 [49] was 2.88 µM. The TGI [49] was greater than 100 µM, the GI50 [50] was 8.75 µM and the TGI [50] was 33.1 µM. The GI50 [51] was 1.92 µM, the TGI [51] was 5 µM and the GI50 [52] was 10.7 µM. For the same compound, the TGI [52] was 23.1 µM, the GI50 [53] was 12.1 µM and the TGI [53] was 28.5 µM. It also gave a GI50 [54] of 14.1 µM, a TGI [54] of 30.4 µM and a GI50 [55] of 3.78 µM. The TGI [55] was 14.7 µM, the GI50 [56] was 1.22 µM and the TGI [56] was 2.76 µM.
